Measured values from patent publication US20120252773A1, “Method and composition for inhibiting cell proliferation and angiogenesis” (priority 2005, published 2012).

How the values were obtained:
[1] = system: granulation tissue in fibrin Z-chambers; assay: In vivo fibrin-Z chamber assay, wound healing and microvessel density; conditions: rat
Protocol: An in vivo fibrin-Z chamber assay (K. Amin et al., Cancer Biol. Ther. 2:173-178, (2003) was run to analyze wound healing and microvessel density. Plasminogen-free fibrinogen and thrombin were added to a sterile dual porous chamber through a port. To implant the chambers into rats, the animals were anesthetized with 35 mg/kg of sodium pentobarbital. Two incisions approximately 2 cm in length each were made on the dorsum, one over the mid vertebral and the other over the lower vertebral regions. Pockets were made in the subcutaneous fascia lateral to the incisions using blunt end scissors, and the chambers were placed deep into the pockets. The incision wounds were closed with an autoclip stapling device. Triple antibiotic ointment was applied to the incision area to prevent infection. At 24 h after the implantation, rats began to receive a single daily oral dose of (2) at 0, 3, or 30 mg/kg for 12 days. At the end of 12th day, animals were sacrificed. The chambers were harvested, fixed in 10% formalin overnight, and embedded in paraffin for histological analysis. To determine the effect of (2) on wound healing response, granulation tissue (GT) thickness was measured in microns on H&E-stained cross sections of fibrin Z-chambers using the Zeiss Axioskop II equipped with digital camera (Axiocam) and digital imaging software KS 300. To measure the effect of (2) on microvessel density, immunohistochemistry was performed on 4 μm thick paraffin-embedded sections. The sections were deparaffinized in Hemo-D, rehydrated in graded alcohols, subjected to endogenous peroxidase block in 3% H2O2, boiled in 10% citrate buffer for antigen retrieval, blocked with 5% donkey serum, and placed overnight at 4° C. with primary […] monoclonal antibody at 1:20 dilution. […] Images of three hot spots (×200 fields showing maximal vessel density) were captured from each section and the blood vessels counted using the Zeiss interactive digital imaging software KS300. A total of 15 high-power fields (HPFs, 40×) were counted for vessel density for each group.

Stat-3 (pStat-3, Tyr705) = assay: Stat-3 phosphorylation, Western blot, DU-145 cells; format: cell-based, human; conditions: DU-145, 0.5 μM, 48 h
Protocol: Stat-3 is, therefore, an important molecular target for developing anti-cancer agents. DU-145 cells were treated with 0 (control), 100, or 500 nM of (2) for 48 hours. Western blot analysis was performed using total and phospho-Stat-3 (pStat-3, Tyr705) antibodies from Cell Signal Technology, Inc.

[2] = system: HIF-1α protein in RAW 264.7 immortalized mouse macrophages; assay: HIF-1α protein expression by immunoblotting, RAW 264.7 macrophages; format: cell-based; conditions: RAW 264.7 macrophages (normal cell line)
Protocol: Hypoxia experiments were performed in either of two ways. To produce a very low ambient oxygen concentration (effectively anoxia), we used a protocol in which cells were incubated in a 5% CO2-air atmosphere at 37° C. overnight and then placed in aluminum gas-exchange chambers maintained at 37° C. (Laderoute K R et al. Mol Cell Biol 22: 2515-2523, (2002); Laderoute K R et al. Mol Cell Biol 24: 4128-4137, (2004)). The chambers containing the cells were then placed in a 37° C. circulating water bath and the original atmosphere was repeatedly exchanged with 5% CO2-95% N2 using a manifold equipped with a vacuum pump and a gas cylinder. Atmospheric oxygen partial pressure (pO2) values of less than or equal to 0.01% (relative to air at pO2 of about 21%) can be achieved inside the chambers using this system. […] Atmospheric oxygen levels in both the chambers and the glove box have been measured and calibrated using a polarographic oxygen electrode (Oxygen Sensors, Inc., Norristown, Pa.). […]
We used immunoblotting to evaluate the experiments. […] After spinning at 9,000×g for 5 min at 4° C., the protein concentrations of the supernatants were determined by using a bicinchoninic acid assay (Pierce Biotechnology). […] Primary antibody binding was detected and visualized by using the ECL Plus Western Blotting Detection System (Amersham Pharmacia Biotech) according to the supplier's instructions. […]

C[C@@H]1Cc2cc(O)ccc2C2CCC3(C)/C(=C/COCCN(C)C)CCC3C21 (stereo partly drawn) [Compound (2), (E)-3-Hydroxy-7α-methyl-21-[(2-dimethylamino)ethoxy]-19-norpregna-1,3,5(10),17(20)-tetraene]
decrease in granulation tissue thickness ([1]; 3 mg/kg oral once daily for 12 days): about 20%
decrease in granulation tissue thickness ([1]; 30 mg/kg oral once daily for 12 days): more than 35%
decrease in microvessel formation as compared to the control ([1]; oral once daily for 12 days, dose not stated): 30%
reduction of tyrosine phosphorylation of Stat-3 (Stat-3 (pStat-3, Tyr705)): 52%
HIF-1α protein expression [2]: did not influence
